Test results taken from US9120749B2, “Quinoline derivatives and MELK inhibitors containing the same” (ONCOTHERAPY SCIENCE, INC., priority 2010, dated 2015).
Read-outs that look alike come from different tables or passages of the source.

What was measured:
MELK = MELK (Homo sapiens, UniProt Q14680); test: Kinase assay: MELK activity, phosphorylation of FITC-labeled histone H3 peptide measured by IMAP fluorescence polarization; assay type: biochemical; conditions: read-out: IC50 (μM) (kinase assay)
Chain of MELK (Q14680 whole entry, looked up): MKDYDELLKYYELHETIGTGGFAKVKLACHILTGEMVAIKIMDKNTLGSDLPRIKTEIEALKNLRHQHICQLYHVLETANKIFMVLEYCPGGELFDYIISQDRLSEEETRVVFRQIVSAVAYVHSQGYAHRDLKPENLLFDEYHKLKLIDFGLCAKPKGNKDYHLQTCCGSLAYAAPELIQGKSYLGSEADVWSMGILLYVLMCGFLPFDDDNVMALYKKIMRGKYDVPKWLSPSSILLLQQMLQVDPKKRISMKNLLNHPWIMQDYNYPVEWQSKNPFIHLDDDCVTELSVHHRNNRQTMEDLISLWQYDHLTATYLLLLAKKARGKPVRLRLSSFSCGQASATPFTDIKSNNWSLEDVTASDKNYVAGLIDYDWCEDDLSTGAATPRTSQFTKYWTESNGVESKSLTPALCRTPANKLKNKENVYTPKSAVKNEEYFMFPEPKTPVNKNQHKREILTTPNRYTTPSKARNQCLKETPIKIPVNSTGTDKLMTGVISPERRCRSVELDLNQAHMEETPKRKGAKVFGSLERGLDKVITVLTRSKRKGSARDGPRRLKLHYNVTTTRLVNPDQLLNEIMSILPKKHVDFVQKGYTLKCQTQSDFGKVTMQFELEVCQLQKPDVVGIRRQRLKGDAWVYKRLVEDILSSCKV
In short: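 FP readout: FITC-histone H3 peptide phosphorylation, read 0.5 h (RT) after stopping with 3x volume of IMAP progressive binding solution. Final DMSO 1%.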

T47D cells = test: Cell-based assay: anti-proliferative activity, Cell Counting Kit-8, 72 hours (T47D); conditions: Homo sapiens, T47D, 72 h
In short: (§1)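 Cellular growth is read by CCK-8 colorimetric kit 72 h after inhibitor addition to seeded cells, and IC50 values are derived from the resulting data; MELK protein levels in these lines are checked beforehand by immunoblotting whole crude lysate.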

HT-1197 cells = test: Cell-based assay: anti-proliferative activity, Cell Counting Kit-8, 72 hours (HT-1197, negative control without MELK expression); conditions: Homo sapiens, HT1197, 72 h
In short: as §1

DU4475 = test: Cell-based assay: anti-proliferative activity, Cell Counting Kit-8, 72 hours (DU4475); conditions: Homo sapiens, DU-4475, DU4475 cells
A549 cells = test: Cell-based assay: anti-proliferative activity, Cell Counting Kit-8, 72 hours (A549); conditions: Homo sapiens, A549, 72 h
In short: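 Cell Counting Kit-8 read-out of A549 growth after 72 hours of inhibitor exposure, cells plated in 96-well format. Values reported as IC50.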

BT-549 cells = test: Cell-based assay: anti-proliferative activity, Cell Counting Kit-8, 72 hours (BT-549); conditions: Homo sapiens, BT-549, 72 h, BT549 cells, MELK-expressing; Cell Counting Kit-8 at 72 hours
In short: as §1

[1] = HT1197 cells (negative control, no MELK expression), 72 hours
[2] = 50 micro-M ATP, FITC-labeled histone H3 peptide substrate, IMAP fluorescence polarization
[3] = MELK-expressing, Cell Counting Kit-8 at 72 hours
[4] = HT1197 cells, no MELK expression (negative control), Cell Counting Kit-8 at 72 hours

| Compound | IC50 (MELK) [µM] | IC50 (T47D cells) [µM] | IC50 (HT-1197 cells; [1]) [µM] | IC50 (DU4475) [µM] | IC50 (A549 cells; 72 hours) [µM] | IC50 (MELK; [2]) [µM] | IC50 (T47D cells; [3]) [µM] | IC50 (BT-549 cells) [µM] | IC50 (HT-1197 cells; [4]) [µM] | IC50 (A549 cells; [3]) [µM] |
| --- | --- | --- | --- | --- | --- | --- | --- | --- | --- | --- |
| COc1cc(-c2ccc3ncc(C(=O)C4CC4)c(N[C@H]4CC[C@H](CN)CC4)c3c2)cc(Cl)c1O [Example 493, {4-[trans-4-(Aminomethyl)cyclohexylamino]-6-(3-chloro-4-hydroxy-5-methoxyphenyl)quinolin-3-yl}(cyclopropyl)methanone] | 0.003 | 0.078 | 0.82 | 0.068 | 0.095 | – | – | – | – | – |
| COc1cc(-c2ccc3ncc(C(C)=O)c(N4CCN(C(=O)CN(C)C)CC4)c3c2)cc(Cl)c1O [Example 477, 1-(4-(3-acetyl-6-(3-chloro-4-hydroxy-5-methoxyphenyl)quinolin-4-yl)piperazin-1-yl)-2-(dimethylamino)ethanone] | 0.0016 | 0.87 | 4.7 | 0.3 | 0.36 | – | – | – | – | – |
| O=C(c1cnc2ccc(-c3cc(Cl)c(O)c(Cl)c3)cc2c1Nc1cnc(N2CCNCC2)nc1)C1CC1 [Example 497, cyclopropyl(6-(3,5-dichloro-4-hydroxyphenyl)-4-((2-(piperazin-1-yl)pyrimidin-5-yl)amino)quinolin-3-yl)methanone] | 0.0021 | 0.052 | 0.97 | 0.056 | 0.12 | – | – | – | – | – |
| CC(=O)c1cnc2ccc(-c3cc(F)c(O)c(Cl)c3)cc2c1N1CCN(C(=O)CN(C)C)CC1 [Example 484, 1-(4-(3-acetyl-6-(3-chloro-5-fluoro-4-hydroxyphenyl)quinolin-4-yl)piperazin-1-yl)-2-(dimethylamino)ethanone] | 0.0069 | 1.1 | 17 | 0.58 | 3.4 | – | – | – | – | – |
| CN(C)C[C@H]1CC[C@H](Nc2c(S(C)(=O)=O)cnc3ccc(-c4cc(Cl)c(O)c(Cl)c4)cc23)CC1 [Example 420, 2,6-dichloro-4-(4-((1R,4R)-4-((dimethylamino)methyl)cyclohexylamino)-3-(methylsulfonyl)quinolin-6-yl)phenol] | – | 0.47 | 2.5 | 0.14 | 0.69 | 0.0023 | – | – | – | – |
| CC(C)C(=O)c1cnc2ccc(-c3cc4cc(O)ccc4[nH]3)cc2c1N[C@H]1CC[C@H](N)CC1 [Example 480] | 0.054 | 0.59 | 4.6 | 0.93 | 2.7 | – | – | – | – | – |
| COc1cc(-c2ccc3ncc([S+](C)[O-])c(N[C@H]4CC[C@H](N)CC4)c3c2)cc(Cl)c1O (stereo partly shown) [Example 500] | – | 1.6 | 13 | 1.8 | 4.5 | – | – | – | – | – |
| COc1cc(-c2ccc3ncc(C#N)c(N[C@H]4CC[C@H](N(C)C)CC4)c3c2)cc(Cl)c1O [Example 447] | – | 0.15 | 2 | 0.076 | 0.4 | – | – | – | – | – |
| O=C(c1cnc2ccc(-c3cc(Cl)c(O)c(Cl)c3)cc2c1Nc1ccc(CN2CCOCC2)cc1)C1CC1 [Example 463] | – | 0.52 | 3.6 | 0.26 | 0.43 | – | – | – | – | – |
| CN1CCN(Cc2ccc(-c3c(C(=O)C4CC4)cnc4ccc(-c5cc(Cl)c(O)c(Cl)c5)cc34)cc2)CC1 [Example 482, cyclopropyl(6-(3,5-dichloro-4-hydroxyphenyl)-4-(4-((4-methylpiperazin-1-yl)methyl)phenyl)quinolin-3-yl)methanone] | – | 0.54 | 3.1 | 0.9 | 0.96 | – | – | – | – | – |
| N#Cc1ccc(-c2ccc3ncc(C(=O)C4CC4)c(N[C@H]4CC[C@H](N)CC4)c3c2)s1 [Example 119, 5-{4-[trans-4-Aminocyclohexylamino]-3-(cyclopropanecarbonyl)quinolin-6-yl}thiophene-2-carbonitrile] | – | – | – | – | – | 0.046 | 8.8 | 14 | 8 | 5.4 |
| CC(C)C(=O)c1cnc2ccc(-c3ccc(O)c(Cl)c3)cc2c1N1CCC(CN2CCCC2)CC1 [Example 318, 1-{6-(3-Chloro-4-hydroxyphenyl)-4-[4-(pyrrolidin-1-ylmethyl)piperidin-1-yl]quinolin-3-yl}-2-methylpropan-1-one] | – | – | – | – | – | 0.02 | 0.92 | 1.8 | 1.4 | 0.87 |
| CN(C)[C@H]1CC[C@H](CNc2c(C(=O)C3CC3)cnc3ccc(-c4cc(Cl)c(O)c(Cl)c4)cc23)CC1 [Example 325, Cyclopropyl[6-(3,5-dichloro-4-hydroxyphenyl)-4-{[trans-4-(dimethylamino)cyclohexyl]methylamino}quinolin-3-yl]methanone] | – | – | – | – | – | 0.011 | 0.78 | 1.9 | 10 | 0.62 |
| COc1cc(-c2ccc3ncc(C(=O)C4CC4)c(N4CCC(CN(C)C)CC4)c3c2)cc(Cl)c1O [Example 276, [6-(3-Chloro-4-hydroxy-5-methoxyphenyl)-4-{4-[(dimethylamino)methyl]piperidin-1-yl}quinolin-3-yl](cyclopropyl)methanone] | – | – | – | – | – | 0.0008 | 0.16 | 0.58 | 1.8 | 0.21 |
| N#Cc1ncc(-c2ccc3ncc(C(=O)C4CC4)c(Nc4ccc(CN)cc4)c3c2)cn1 [Example 509, 5-(4-(4-(aminomethyl)phenylamino)-3-(cyclopropanecarbonyl)quinolin-6-yl)pyrimidine-2-carbonitrile] | – | 0.19 | 0.95 | 0.6 | 0.79 | – | – | – | – | – |
| CN(C)Cc1ccc(Nc2c([S+](C)[O-])cnc3ccc(-c4cc(Cl)c(O)c(Cl)c4)cc23)cc1 (stereo not shown) [Example 473] | – | 0.43 | 2.4 | 0.6 | 1.2 | – | – | – | – | – |
| COc1cc(-c2ccc3ncc(C(=O)CC(C)C)c(N[C@H]4CC[C@H](N(C)C)CC4)c3c2)cc(Cl)c1O [Example 348, 1-{6-(3-Chloro-4-hydroxy-5-methoxyphenyl)-4-[trans-4-(dimethylamino)cyclohexylamino]quinolin-3-yl}-3-methylbutan-1-one] | – | – | – | – | – | 0.0043 | 0.41 | 0.93 | 3 | 0.47 |
| N[C@H]1CC[C@@H](Nc2c(C(=O)C3CC3)cnc3ccc(-c4cc(F)c(O)c(F)c4)cc23)CC1 [Example 180, [4-(cis-4-Aminocyclohexylamino)-6-(3,5-difluoro-4-hydroxyphenyl)quinolin-3-yl](cyclopropyl)methanone] | – | – | – | – | – | 0.0026 | 0.17 | 0.3 | 4.5 | 0.9 |
| CC(=O)c1cnc2ccc(-c3cc(F)c(O)c(F)c3)cc2c1N[C@H]1CC[C@H](N)CC1 [Example 258, 1-{4-[trans-4-Aminocyclohexylamino]-6-(3,5-difluoro-4-hydroxyphenyl)quinolin-3-yl}ethanone] | – | – | – | – | – | 0.04 | 0.071 | 0.16 | 100 | 0.85 |
| CN1CCN(C2CCN(c3c(C(=O)C4CC4)cnc4ccc(-c5ccc(O)c(Cl)c5)cc34)CC2)CC1 [Example 350, {6-(3-Chloro-4-hydroxyphenyl)-4-[4-(4-methylpiperazin-1-yl)piperidin-1-yl]quinolin-3-yl}(cyclopropyl)methanone] | – | – | – | – | – | 0.005 | 0.26 | 0.98 | 2.5 | 0.44 |
